Measured values published in US20260224524A1, “A PHARMACEUTICAL COMPOSITION TARGETING MUTANT P53 AND HER2” (DR DOZO LABORATORIES, priority 2023, published 2026).
Values after ≈ are worked out from the molar mass of the structure shown.

How the values were obtained:
Format in all cases: cell-based
[1] = test system: Human Breast Cancer Cell Line MDA-MB-231; experiment: Growth inhibition (% control growth, LC50, TGI, GI50) MDA-MB-231
Description: The therapeutic effect of […] (peak 5) and SA2 (peak 4) is evaluated against human […] cancer cell line MDA-MB-231 by calculating the percentage growth inhibition, drug concentration of test compound needed to inhibit cell growth by 50% (GI50) values.
The therapeutic effect of SACC is evaluated against human […] cancer cell lines MDA-MB-231 by calculating the percentage growth inhibition, drug concentration of test compound needed to inhibit cell growth by 50% (GI50) values.

[2] = test system: Human Pancreatic Cancer Cell Line Mia-Pa-Ca-2; experiment: Growth inhibition (% control growth, LC50, TGI, GI50) Mia-Pa-Ca-2; details: for GI50: Homo sapiens
Description: The therapeutic effect of SA1 (peak 5) and SA2 (peak 4) is evaluated against human pancreatic cancer cell line Mia-Pa-Ca-2 by calculating the percentage growth inhibition, drug concentration of test compound needed to inhibit cell growth by 50% (GI50) values.
The therapeutic effect of SACC is evaluated against human […] cancer cell line Mia-Pa-Ca-2 by calculating the percentage growth inhibition, drug concentration of test compound needed to inhibit cell growth by 50% (GI50) values.

[3] = test system: Human Breast Cancer Cell Line MDA-MB-231; experiment: Growth inhibition (% control growth, LC50, TGI, GI50) MDA-MB-231; remark: listed apart in the source

With `COc1cccc2c1C(=O)c1c(O)c3c(c(O)c1C2=O)C[C@@](O)(C(=O)CO)C[C@@H]3O[C@H]1C[C@H](N)[C@H](O)[C@H](C)O1` [ADR, Adriamycin] the “% Control Growth” value ([1]; 10 μg/ml, Average Values) was −88.7%, the “% Control Growth” value ([1]; 10 μg/ml, Experiment 1) was −90.5% and the “% Control Growth” value ([1]; 10 μg/ml, Experiment 3) was −86.3%. The “% Control Growth” value ([1]; 20 μg/ml, Average Values) was −83.1%, the “% Control Growth” value ([1]; 20 μg/ml, Experiment 2) was −84.8% and the “% Control Growth” value ([1]; 20 μg/ml, Experiment 3) was −79.3%. For the same compound, the “% Control Growth” value ([1]; 40 μg/ml, Average Values) was −81.2%, the “% Control Growth” value ([1]; 40 μg/ml, Experiment 2) was −82.5% and the “% Control Growth” value ([1]; 40 μg/ml, Experiment 3) was −80.2%. The “% Control Growth” value ([1]; 80 μg/ml, Average Values) was −74.8%, the “% Control Growth” value ([1]; 80 μg/ml, Experiment 1) was −75.2% and the “% Control Growth” value ([1]; 80 μg/ml, Experiment 2) was −78.1%. For the same compound, the “% Control Growth” value ([1]; 10^−4M, Average Values) was −69.1%, the “% Control Growth” value ([1]; 10^−4M, Experiment 1) was −68.3% and the “% Control Growth” value ([1]; 10^−4M, Experiment 2) was −69.6%. The “% Control Growth” value ([1]; 10^−4M, Experiment 3) was −69.4%, the “% Control Growth” value ([1]; 10^−5M, Average Values) was −82.4% and the “% Control Growth” value ([1]; 10^−5M, Experiment 1) was −80.5%. The “% Control Growth” value ([1]; 10^−5M, Experiment 2) was −83.4%, the “% Control Growth” value ([1]; 10^−5M, Experiment 3) was −83.3% and the “% Control Growth” value ([1]; 10^−6M, Average Values) was −85.0%. For the same compound, the “% Control Growth” value ([1]; 10^−6M, Experiment 1) was −83.1%, the “% Control Growth” value ([1]; 10^−6M, Experiment 2) was −86.2% and the “% Control Growth” value ([1]; 10^−6M, Experiment 3) was −85.8%. The “% Control Growth” value ([1]; 10^−7M, Average Values) was −87.8%, the “% Control Growth” value ([1]; 10^−7M, Experiment 1) was −82.8% and the “% Control Growth” value ([1]; 10^−7M, Experiment 2) was −91.0%. The “% Control Growth” value ([1]; 10^−7M, Experiment 3) was −89.6%, the GI50 ([1]; Homo sapiens, calculated from graph) was less than 10 µg/mL and the TGI ([1]; calculated from graph) was less than 10 µg/mL. For the same compound, the GI50 ([2]; MIA PaCa-2, Mia-Pa-Ca-2, calculated from graph) was less than 10 µg/mL, the GI50 ([2]; MIA PaCa-2, Mia-Pa-Ca-2, Molar drug concentrations calculated from graph) was 4.75 µg/mL (≈ 8.74 µM) and the “% Control Growth” value ([2]; Mia-Pa-Ca-2, 10 μg/ml, Average Values) was −89.7%. For the same compound, the “% Control Growth” value ([2]; Mia-Pa-Ca-2, 10 μg/ml, Experiment 1) was −88.7%, the “% Control Growth” value ([2]; Mia-Pa-Ca-2, 10 μg/ml, Experiment 2) was −89.2% and the “% Control Growth” value ([2]; Mia-Pa-Ca-2, 10 μg/ml, Experiment 3) was −91.2%. The “% Control Growth” value ([2]; Mia-Pa-Ca-2, 20 μg/ml, Average Values) was −91.1%, the “% Control Growth” value ([2]; Mia-Pa-Ca-2, 20 μg/ml, Experiment 1) was −91.3% and the “% Control Growth” value ([2]; Mia-Pa-Ca-2, 20 μg/ml, Experiment 2) was −90.4%. For the same compound, the “% Control Growth” value ([2]; Mia-Pa-Ca-2, 20 μg/ml, Experiment 3) was −91.5%, the “% Control Growth” value ([2]; Mia-Pa-Ca-2, 40 μg/ml, Average Values) was −91.5% and the “% Control Growth” value ([2]; Mia-Pa-Ca-2, 40 μg/ml, Experiment 1) was −91.4%. The “% Control Growth” value ([2]; Mia-Pa-Ca-2, 40 μg/ml, Experiment 2) was −92.3%, the “% Control Growth” value ([2]; Mia-Pa-Ca-2, 40 μg/ml, Experiment 3) was −91.0% and the “% Control Growth” value ([2]; Mia-Pa-Ca-2, 80 μg/ml, Average Values) was −84.7%. For the same compound, the “% Control Growth” value ([2]; Mia-Pa-Ca-2, 80 μg/ml, Experiment 1) was −84.1%, the “% Control Growth” value ([2]; Mia-Pa-Ca-2, 80 μg/ml, Experiment 2) was −87.5% and the “% Control Growth” value ([2]; Mia-Pa-Ca-2, 80 μg/ml, Experiment 3) was −82.3%. For the same compound, the “% Control Growth” value ([2]; Mia-Pa-Ca-2, 10^−4M, Average Values) was −89.6%, the “% Control Growth” value ([2]; Mia-Pa-Ca-2, 10^−4M, Experiment 1) was −88.2% and the “% Control Growth” value ([2]; Mia-Pa-Ca-2, 10^−4M, Experiment 2) was −89.7%. The “% Control Growth” value ([2]; Mia-Pa-Ca-2, 10^−4M, Experiment 3) was −91.0%, the “% Control Growth” value ([2]; Mia-Pa-Ca-2, 10^−5M, Average Values) was −87.8% and the “% Control Growth” value ([2]; Mia-Pa-Ca-2, 10^−5M, Experiment 1) was −88.7%. For the same compound, the “% Control Growth” value ([2]; Mia-Pa-Ca-2, 10^−5M, Experiment 2) was −87.4%, the “% Control Growth” value ([2]; Mia-Pa-Ca-2, 10^−5M, Experiment 3) was −87.3% and the “% Control Growth” value ([2]; Mia-Pa-Ca-2, 10^−6M, Average Values) was −75.8%. For the same compound, the “% Control Growth” value ([2]; Mia-Pa-Ca-2, 10^−6M, Experiment 1) was −77.3%, the “% Control Growth” value ([2]; Mia-Pa-Ca-2, 10^−6M, Experiment 2) was −75.7% and the “% Control Growth” value ([2]; Mia-Pa-Ca-2, 10^−6M, Experiment 3) was −74.5%. For the same compound, the “% Control Growth” value ([2]; Mia-Pa-Ca-2, 10^−7M, Average Values) was −60.2%, the “% Control Growth” value ([2]; Mia-Pa-Ca-2, 10^−7M, Experiment 1) was −3.2% and the “% Control Growth” value ([2]; Mia-Pa-Ca-2, 10^−7M, Experiment 2) was −88.2%. For the same compound, the “% Control Growth” value ([2]; Mia-Pa-Ca-2, 10^−7M, Experiment 3) was −89.3%, the TGI ([2]; Mia-Pa-Ca-2, Molar drug concentrations calculated from graph) was 4.69 µg/mL (≈ 8.63 µM) and the TGI ([2]; Mia-Pa-Ca-2, calculated from graph) was less than 10 µg/mL. The “% Control Growth” value ([3]; 10 μg/ml, Experiment 2) was −89.3%, the “% Control Growth” value ([3]; 20 μg/ml, Experiment 1) was −85.1% and the “% Control Growth” value ([3]; 40 μg/ml, Experiment 1) was −80.9%. For the same compound, the “% Control Growth” value ([3]; 80 μg/ml, Experiment 3) was −71.2%.
